# Source: publication PMC4891657, “Orexin 2 Receptor Antagonism is Sufficient to Promote NREM and REM Sleep from Mouse to Man” (Scientific Reports, 2016)
# How the values were obtained:
# OX1R [1] = biological target: T1, OX1R (Oryctolagus cuniculus, UniProt G1SPJ3); test: Radio-ligand displacement binding, CHO-K1 membranes, rabbit OX1R; conditions: read-out: OX1R affinity (Ki)
# T1 sequence (G1SPJ3 1-416): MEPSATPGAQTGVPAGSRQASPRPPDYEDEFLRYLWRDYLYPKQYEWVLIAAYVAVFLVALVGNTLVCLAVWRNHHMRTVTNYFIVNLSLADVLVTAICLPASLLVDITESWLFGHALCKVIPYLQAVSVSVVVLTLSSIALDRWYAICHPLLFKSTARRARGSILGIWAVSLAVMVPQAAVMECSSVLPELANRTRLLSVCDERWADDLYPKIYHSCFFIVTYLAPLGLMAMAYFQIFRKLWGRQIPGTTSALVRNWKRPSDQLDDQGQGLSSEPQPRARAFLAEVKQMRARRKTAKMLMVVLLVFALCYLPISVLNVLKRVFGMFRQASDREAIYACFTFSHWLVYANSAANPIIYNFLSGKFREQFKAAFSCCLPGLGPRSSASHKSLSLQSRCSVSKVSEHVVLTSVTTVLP
# Method: (§1) MK-1064 was evaluated for its ability to inhibit orexin-peptide-A-induced calcium mobilization in CHO cell lines separately expressing OX1R and OX2R from mice, rats, rabbits, dogs, rhesus monkeys and humans.
# (§2) Binding and functional blockade of OX1R and OX2R with MK-1064 relative to other 2-SORAs and the DORA, MK-6096, were assessed using membranes from Chinese hamster ovary (CHO)-K1 cells (American Type Tissue Collection, Manassas, VA) transfected to express human, mouse, rat, rabbit, dog, or rhesus monkey OX1R or OX2R receptors, as described previously. The kinetics of binding to human OX2R was assessed by radioligand displacement on CHO-K1 cells expressing the receptor. […] The ON rate analysis was performed by presoaking GF/B filters in 0.3% polyethyleneimine (Sigma) using a Skatron 12-well cell harvester and cold buffer at the indicated time points after addition. For OFF rate determination, binding reactions were allowed to proceed to equilibrium and terminated with 1000x [Kd] of unlabeled antagonist and filtered as above at pre-determined time points. Ultima Gold^TM (PerkinElmer 6013327) scintillation cocktail was added to each filter disc and counted on a PerkinElmer TriCarb 2910 scintillation counter. Data were analyzed using GraphPad® Prism v 6.04 (San Diego, CA, USA). The KON rate was determined according to the equation, KON = (KOBS − KOFF)/[ligand].
# OX2R [2] = biological target: T2, OX2R (Homo sapiens, UniProt O43614); test: Radio-ligand displacement binding, CHO-K1 membranes, human OX2R; parameters: expressed in transfected cells; host or cells: CHO-K1; conditions: for fold OX2R selectivity (Ki): OX1R Ki / OX2R Ki; for Ki: read-out: OX2R affinity (Ki)
# T2 sequence (O43614 1-444): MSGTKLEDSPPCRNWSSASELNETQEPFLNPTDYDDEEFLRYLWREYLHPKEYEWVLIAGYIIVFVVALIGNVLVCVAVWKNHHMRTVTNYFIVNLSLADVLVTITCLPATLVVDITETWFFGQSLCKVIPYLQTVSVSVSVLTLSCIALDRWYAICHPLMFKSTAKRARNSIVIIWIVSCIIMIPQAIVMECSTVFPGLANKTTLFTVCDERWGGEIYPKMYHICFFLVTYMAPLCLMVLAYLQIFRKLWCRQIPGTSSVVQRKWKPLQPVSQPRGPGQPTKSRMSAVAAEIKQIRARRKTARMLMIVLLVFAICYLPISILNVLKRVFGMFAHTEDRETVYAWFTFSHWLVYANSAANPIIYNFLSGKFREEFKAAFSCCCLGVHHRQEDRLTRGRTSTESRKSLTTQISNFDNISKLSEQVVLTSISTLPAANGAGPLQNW
# Method: as §1, §2
# OX2R [3] = biological target: T3, OX2R (Rattus norvegicus, UniProt P56719); test: Radio-ligand displacement binding, CHO-K1 membranes, rat OX2R; conditions: for fold OX2R selectivity (Ki): OX1R Ki / OX2R Ki; for Ki: read-out: OX2R affinity (Ki)
# T3 construct: expressed in transfected cells; host or cells: CHO-K1
# T3 sequence (P56719 1-460): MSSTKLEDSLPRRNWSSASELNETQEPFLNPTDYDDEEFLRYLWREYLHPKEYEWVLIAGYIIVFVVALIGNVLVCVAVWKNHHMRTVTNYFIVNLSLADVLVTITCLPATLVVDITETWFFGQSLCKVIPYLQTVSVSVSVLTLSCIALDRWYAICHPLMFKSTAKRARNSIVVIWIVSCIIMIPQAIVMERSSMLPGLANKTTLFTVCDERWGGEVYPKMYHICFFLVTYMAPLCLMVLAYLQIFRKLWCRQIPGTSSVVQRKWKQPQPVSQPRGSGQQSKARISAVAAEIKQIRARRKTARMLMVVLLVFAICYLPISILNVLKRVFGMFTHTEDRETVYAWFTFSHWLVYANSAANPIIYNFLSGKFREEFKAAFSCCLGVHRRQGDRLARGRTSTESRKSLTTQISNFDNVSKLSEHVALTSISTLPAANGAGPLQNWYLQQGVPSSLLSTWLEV
# Method: as §1, §2
# OX1R [4] = biological target: T4, OX1R (Macaca mulatta, UniProt F7FE63); test: Radio-ligand displacement binding, CHO-K1 membranes, rhesus OX1R; parameters: species or system rhesus monkey; conditions: read-out: OX1R affinity (Ki)
# T4 sequence (F7FE63 1-425): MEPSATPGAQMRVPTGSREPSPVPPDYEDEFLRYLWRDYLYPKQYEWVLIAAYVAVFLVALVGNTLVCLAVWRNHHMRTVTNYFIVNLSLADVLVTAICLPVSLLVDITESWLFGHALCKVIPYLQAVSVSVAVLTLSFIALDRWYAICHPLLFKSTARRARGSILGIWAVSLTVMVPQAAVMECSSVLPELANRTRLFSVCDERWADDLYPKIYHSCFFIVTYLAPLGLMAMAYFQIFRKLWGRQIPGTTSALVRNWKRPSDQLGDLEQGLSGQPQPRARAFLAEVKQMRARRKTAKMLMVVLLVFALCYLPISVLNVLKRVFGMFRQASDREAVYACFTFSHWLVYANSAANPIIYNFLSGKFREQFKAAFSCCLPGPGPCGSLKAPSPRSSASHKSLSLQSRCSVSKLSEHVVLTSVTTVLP
# Method: as §1, §2
# OX1R [5] = biological target: T1, OX1R; test: Inhibition of orexin-peptide-A-induced calcium mobilization in CHO cells, rabbit OX1R; format: cell-based
# Method: as §1, §2
# OX2R [6] = biological target: T2, OX2R; test: Inhibition of orexin-peptide-A-induced calcium mobilization in CHO cells, human OX2R; format: cell-based; parameters: expressed in transfected cells; host or cells: CHO-K1; conditions: for fold OX2R selectivity (Kb): OX1R Kb / OX2R Kb
# Method: as §1, §2
SMILES,Ki (OX1R [1]) [nM],fold OX2R selectivity (Ki) (OX2R [2]),Ki (OX2R [2]) [nM],fold OX2R selectivity (Ki) (OX2R [3]),Ki (OX2R [3]) [nM],Ki (OX1R [4]) [nM],Kb (OX1R [5]) [nM],Kb (OX2R [6]) [nM],fold OX2R selectivity (Kb) (OX2R [6])
COc1ccc(CNC(=O)c2cc(-c3cncc(C)c3)ncc2-c2ccccc2)nc1OC [2-SORA-7],4390,[5957] fold,0.47,[11877] fold,0.22,1340,16800,12,[363] fold
COc1ccc(CNC(=O)c2cc(-c3cc(Cl)cc(Cl)c3)cnc2-c2cccnc2)cc1OC [2-SORA-18],241,[1000] fold,0.1,[522] fold,0.18,132,496,18,[9] fold
"COc1ccc(CNC(=O)c2cc(-c3cncc(Cl)c3)cnc2-c2ccccn2)nc1OC [MK-1064, 5″-chloro-N-[(5,6-dimethoxypyridin-2-yl)methyl]-2,2′:5′, 3″-terpyridine-3′-carbo xamide]",2440,[2885] fold,0.52,[1288] fold,0.83,815,7370,9,[208] fold
COc1ccc(CNC(=O)c2cc(-c3cncc(C)c3)ncc2-c2nccs2)nc1OC [MK-3697],4740,–,0.97,–,1.93,2180,32100,14,–
Cc1ccc(-c2ncccn2)c(C(=O)N2C[C@H](COc3ccc(F)cn3)CC[C@H]2C)c1 [MK-6096],2.6,[8.1] fold,0.31,[11.4] fold,0.22,12.5,13,11,[1.0] fold
